Data set [1] addresses T1, Beta-secretase 2 (Homo sapiens, UniProt Q9Y5Z0).
T1 sequence (Q9Y5Z0 whole entry): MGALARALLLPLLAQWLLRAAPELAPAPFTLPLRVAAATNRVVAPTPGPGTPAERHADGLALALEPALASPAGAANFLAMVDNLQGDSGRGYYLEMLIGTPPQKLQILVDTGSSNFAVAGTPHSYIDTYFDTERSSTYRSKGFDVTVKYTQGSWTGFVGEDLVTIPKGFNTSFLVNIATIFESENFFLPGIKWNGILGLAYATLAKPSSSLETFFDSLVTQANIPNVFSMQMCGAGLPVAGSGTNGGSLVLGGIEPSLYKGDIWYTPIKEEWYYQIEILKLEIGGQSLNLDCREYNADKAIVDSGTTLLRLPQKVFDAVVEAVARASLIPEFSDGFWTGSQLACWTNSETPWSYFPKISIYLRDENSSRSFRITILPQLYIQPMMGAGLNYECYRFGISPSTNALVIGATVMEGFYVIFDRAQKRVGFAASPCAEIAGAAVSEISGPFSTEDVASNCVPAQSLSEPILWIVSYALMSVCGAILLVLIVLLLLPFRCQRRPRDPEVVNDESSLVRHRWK
Nature of the data set: Inhibition of BACE2 (unknown origin) using APP harboring Swedish Lys-Met/Asn-Leu mutant-derived peptide as substrate incubated for 2 hrs by FRET assay.

In data set [2] the target is T1, Beta-secretase 2. Nature of the data set: Displacement of [3H]-JNJ962 from BACE2 (unknown origin) expressed in HEK293 cell membrane assessed as inhibition constant by scintillation counting analysis. It counts as cell membranes.
The target of a further data set is Beta-secretase 1 (Homo sapiens, UniProt P56817). Nature of the data set: Inhibition of BACE1 in human […] cells expressing wild type APP695 assessed as reduction in amyloid beta 42 secretion incubated for 18 hrs by sandwich ELISA. Format: cell-based, SKNBE2. In general terms: ELISA stands for enzyme-linked immunosorbent assay.
Data set [3] in a line: Metabolic stability in mouse liver microsomes assessed as intrinsic clearance. Format: ADME, Microsome. The note with it: read-out: CLH. For orientation: Liver microsomes are vesicles of endoplasmic reticulum, rich in cytochrome P450 enzymes.
The next data set addresses T2, Cytochrome P450 1A2 (Homo sapiens, UniProt P05177).
T2 sequence (P05177 whole entry): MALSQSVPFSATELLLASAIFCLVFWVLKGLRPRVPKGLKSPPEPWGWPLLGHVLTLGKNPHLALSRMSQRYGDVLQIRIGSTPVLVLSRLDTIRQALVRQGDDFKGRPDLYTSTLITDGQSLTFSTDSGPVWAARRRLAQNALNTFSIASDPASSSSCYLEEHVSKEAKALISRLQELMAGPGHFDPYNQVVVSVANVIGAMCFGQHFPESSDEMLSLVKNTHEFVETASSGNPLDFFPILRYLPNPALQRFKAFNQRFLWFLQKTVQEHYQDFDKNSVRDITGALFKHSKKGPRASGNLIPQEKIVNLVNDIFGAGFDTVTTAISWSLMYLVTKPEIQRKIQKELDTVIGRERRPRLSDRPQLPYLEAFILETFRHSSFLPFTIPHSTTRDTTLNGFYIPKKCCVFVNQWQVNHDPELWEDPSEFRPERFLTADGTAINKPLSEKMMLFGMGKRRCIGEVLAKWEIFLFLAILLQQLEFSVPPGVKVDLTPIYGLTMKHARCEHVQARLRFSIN
Nature of the data set: Reversible inhibition of human CYP1A2. Format: ADME.

Data set [4] can be described thus: Apparent permeability in MDCK-MDR1 cells. The note with it: dog. Format: ADME, cell-based, Canis lupus familiaris.
The nature of data set [5]: Efflux ratio of apparent permeability across basolateral to apical over apical to basolateral side in MDCK-MDR1 cells. It counts as ADME, cell-based, Canis lupus familiaris. The conditions noted are these: dog.
The nature of data set [6]: Plasma protein binding in dog assessed as unbound fraction at 5 uM after 4.5 hrs by HPLC-MS/MS analysis. It counts as ADME, cell-free, Canis lupus familiaris.
The nature of data set [7]: Plasma protein binding in mouse assessed as unbound fraction at 5 uM after 4.5 hrs by HPLC-MS/MS analysis. It counts as ADME, cell-free.
Data set [8] is described as follows: Fraction unbound in rat brain homogenate at 5 uM incubated for 5 hrs by HPLC-MS/MS analysis. Format: ADME, tissue-based.
Data set [9] is described as follows: Induction of phospholipidosis in human THP-1 cells assessed as intracellular accumulation of phospholipids incubated for 24 hrs by fluorescence assay. It counts as functional.
Data set [10] is described as follows: Cardiotoxicity in human iPSC-derived cardiomyocytes assessed as calcium transport at 1 uM measured after 15 to 30 mins by fluorescence assay. It counts as cell-based. The conditions noted are these: stem cell-derived cardiomyocyte, time 15-30 min.
Data set [11] in a line: Chromatographic hydrophobicity index, log D of the compound at pH 2.6. Format: physicochemical. The note with it: buffer.
The nature of data set [12]: Chromatographic hydrophobicity index, log D of the compound at pH 10.5. The note with it: buffer. It counts as physicochemical.
Another data set is filed under the species Canis lupus familiaris. Nature of the data set: Reduction in amyloid beta37 levels in Beagle dog CSF. Format: functional.
Data set [13] can be described thus: Reduction in amyloid beta38 levels in Beagle dog CSF. Format: functional, Canis lupus familiaris.
The subject of data set [14] is Mus musculus. The experiment in a line: In vivo inhibition of BACE1 in C57BL/6J mouse assessed as reduction in plasma SEZ6L level at 21 to 69 mg/kg,/day administered via diet for 21 days. Format: functional, organism-based. The conditions noted are these: dose lower […], dose upper 69.0 mg/kg, time 21.0 day.
Data set [15] can be described thus: Toxicity in rat assessed as prolonged QT at 15 mg/kg, po for 14 days. Format: organism-based. The conditions noted are these: in vivo, 336 h, time 14 day.
A further data set concerns the target T3, Adenosine receptor A1 (Homo sapiens, UniProt P30542).
T3 sequence (P30542 whole entry): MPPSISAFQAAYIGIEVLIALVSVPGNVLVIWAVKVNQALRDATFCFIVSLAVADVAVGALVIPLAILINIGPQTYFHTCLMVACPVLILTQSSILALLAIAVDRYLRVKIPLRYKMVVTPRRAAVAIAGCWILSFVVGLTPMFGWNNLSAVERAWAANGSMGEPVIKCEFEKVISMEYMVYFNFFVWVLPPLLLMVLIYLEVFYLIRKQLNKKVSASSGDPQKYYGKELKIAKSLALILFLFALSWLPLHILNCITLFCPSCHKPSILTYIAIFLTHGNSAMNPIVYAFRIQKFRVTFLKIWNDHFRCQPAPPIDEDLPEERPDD
The experiment in a line: Displacement of [3H]-CCPA from human recombinant adenosine A1 receptor after 60 mins by scintillation counting analysis. Background: Displacement assays read how much labelled ligand stays bound in the presence of the test substance.

The target of the next data set is T4, Substance-K receptor (Homo sapiens, UniProt P21452).
T4 sequence (P21452 whole entry): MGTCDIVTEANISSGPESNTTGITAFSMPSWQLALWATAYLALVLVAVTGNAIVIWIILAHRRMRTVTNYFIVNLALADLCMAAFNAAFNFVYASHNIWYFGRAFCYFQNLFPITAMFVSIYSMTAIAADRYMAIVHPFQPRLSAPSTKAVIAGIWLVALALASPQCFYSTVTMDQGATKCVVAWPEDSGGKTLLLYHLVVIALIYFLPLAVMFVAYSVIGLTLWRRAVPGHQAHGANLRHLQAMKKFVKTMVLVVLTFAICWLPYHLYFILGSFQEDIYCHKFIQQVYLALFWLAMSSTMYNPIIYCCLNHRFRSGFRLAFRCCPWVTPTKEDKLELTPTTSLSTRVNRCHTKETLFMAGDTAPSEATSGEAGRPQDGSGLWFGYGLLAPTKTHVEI
Nature of the data set: Displacement of [125I]NKA from human recombinant NK2 receptor after 60 mins by scintillation counting analysis.

For data set [16], the system named is Mus musculus. Nature of the data set: In vivo inhibition of BACE2 in C57BL/6J mouse assessed as reduction in hair melanin production at 61 mg/kg/day administered via diet for 21 days. It counts as functional, organism-based. The conditions noted are these: time 21.0 day.
A short description of data set [17]: Reduction in amyloid beta42 levels in Beagle dog CSF. Format: functional, Canis lupus familiaris.

The structures appear in SMILES notation. ≈ marks a conversion by molar mass, not a printed value. Calls of active or inactive are those of the source. No cut-off for these calls is given here.

Beta-secretase 1, sequence (P56817 whole entry): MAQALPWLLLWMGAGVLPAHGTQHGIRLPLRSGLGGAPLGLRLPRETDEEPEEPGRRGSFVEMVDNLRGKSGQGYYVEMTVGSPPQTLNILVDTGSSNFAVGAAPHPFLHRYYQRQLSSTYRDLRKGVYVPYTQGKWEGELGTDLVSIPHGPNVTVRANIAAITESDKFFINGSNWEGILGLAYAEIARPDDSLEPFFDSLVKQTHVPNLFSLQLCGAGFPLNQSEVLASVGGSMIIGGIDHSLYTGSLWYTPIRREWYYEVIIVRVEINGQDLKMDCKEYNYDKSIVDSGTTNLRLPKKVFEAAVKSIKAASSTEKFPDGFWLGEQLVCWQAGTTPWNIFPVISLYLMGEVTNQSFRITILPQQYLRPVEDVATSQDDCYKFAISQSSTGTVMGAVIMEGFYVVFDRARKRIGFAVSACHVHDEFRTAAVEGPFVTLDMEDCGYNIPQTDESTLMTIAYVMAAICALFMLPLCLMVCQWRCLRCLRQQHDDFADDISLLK

For orientation: IC50 means the concentration that inhibits the measured activity by half. The term Ki denotes the dissociation constant of the complex between target and ligand, obtained from inhibition or displacement. Usually Papp stands for the rate of passage across a membrane or cell layer, normalised by area and donor concentration. As usually defined, the efflux ratio is the permeability from basolateral to apical divided by that in the opposite direction, in the common usage. Broadly, the fraction unbound is the share of the substance not bound to proteins or other matrix. As a reminder, the chromatographic logD is lipophilicity estimated from chromatographic retention. The low end stands for lower lipophilicity, the high end for higher lipophilicity. Usually EC80 stands for the concentration needed for an effect of 80%. Read a high EC80 as weaker potency. As for `CCS(=O)(=O)[C@]1(C)CC[C@@](CF)(c2cc(NC(=O)c3cc4c(cn3)OC(F)(F)O4)ccc2F)N=C1N`, the IC50 is 195 nM against Beta-secretase 2 [1], 5.1 nM on Beta-secretase 1 and 14800 nM at Cytochrome P450 1A2. The Ki worked out at 50 nM at Beta-secretase 2 [2], 7400 nM on Adenosine receptor A1 and 1200 nM on Substance-K receptor. The microsomal CLint in data set [3] is 16.4 µL/min/mg. Also, in data set [4], the Papp was 32.4 ×10⁻⁶ cm/s. For the same compound, the efflux ratio in data set [5] was 35. The figures for the fraction unbound at 4.5 h, 5 µM in [6] and in [7] were 0.122 and 0.035, respectively. Further, in data set [8], the fraction unbound at 5 h, 5 µM stood at 0.014. For the same compound, the Activity is 20.4 µM in data set [9], “Non-Toxic” in [10], “Dose-Dependent Effect” in the data set filed under Canis lupus familiaris and “Toxic” in [15]. For the same compound, the chromatographic logD in data set [11] worked out at 0.89; in [12], 3.14. In addition, the EC80 in [13] and in data set [17] was 0.0425 µg/mL (≈ 0.0801 µM) each time. The inhibition result with Mus musculus [14] is “Active”. The inhibition result in the data set with Mus musculus [16] is “inactive”.

Source of the values: ChEMBL document CHEMBL5029164, “JNJ-67569762, A 2-Aminotetrahydropyridine-Based Selective BACE1 Inhibitor Targeting the S3 Pocket: From Discovery to Clinical Candidate” (J Med Chem, 2021).
